Patent US20120022129A1, “Targeting of Histone Deacetylase 2, Protein Kinase CK2, and Nuclear Factor NRF2 For Treatment of Inflammatory Diseases” (priority 2008, published 2012)
Where a SMILES comes first, the peptide text is derived from it. [ ]: non-standard residue; d: D form. Nle = CCCC[C@H](N)C(=O)O

Columns and labels:
HDAC2 [1] = experiment: HDAC2 levels by western blot in MonoMac6 cells; details: then CSE 2.5% 6 h
Procedure: The human monocyte-macrophage cell line (MonoMac6) was established from the peripheral blood of a subject with monoblastic leukemia (21). […]
MonoMac6 cells were washed with Ca^2+/Mg^2+ free PBS and seeded at a density of 5.0×10^6 cells in 100 mm culture plates in a total volume of 7 ml RPMI-1640 containing 0.5% FBS. […] Cells were treated with CSE (2.5%), washed in ice-cold sterile Ca^2+/Mg^2+ free PBS and lysed in RIPA buffer (50 mM Tris HCl pH 7.4, 150 mM NaCl, 0.25 mM EDTA, 5 mM NaF, 0.1% sodium deoxycholate, 1% Triton X-100); cell extracts and cell culture media were stored at −80° C. until analyzed.
Cells were lysed in 100 μl RIPA buffer supplemented with protease inhibitor cocktail (leupeptin, aprotinin, pepstatin and PMSF) and stored at −80° C. […] After extensive washing, primary antibodies were detected with secondary antibodies linked to horseradish peroxidase (Dako, Carpinteria, Calif.) and bound complex detected with enhanced chemiluminescence (PerkinElmer, Waltham, Mass.).

HDAC2 [2] = experiment: Ubiquitination of immunoprecipitated HDAC2 in MonoMac6 cells; assay type: cell-based, human
Procedure: FIG. 4: CSE-mediated degradation of HDAC2 is ubiquitin-proteasome dependent in MonoMac6 cells. […] Immunoprecipitated HDAC2 was assayed for bound ubiquitin using specific ubiquitin anti-sera. […] (D) The relative density of ubiquitin expression in MonoMac6 cells after proteasome inhibition of CSE-induced HDAC2 degradation normalized to immunoprecipitated HDAC2.
(§1) Cell lysate controls were used.
(§2) To further confirm this hypothesis, it was determined if exposure to okadaic acid would induce ubiquitination and degradation of HDAC2. […] Immunoprecipitated HDAC2 was then assayed for the presence of ubiquitinated residues using specific ubiquitin anti-sera by western blot. […] To further confirm the hypothesis, MonoMac6 cells were treated with okadaic acid (1 μM) for 0.5 h, cells were fixed in 4% paraformaldehyde and immunostained with anti-HDAC2 antibodies to determine HDAC2 localization.

HDAC2 [3] = experiment: Serine phosphorylation of immunoprecipitated HDAC2 in H292 cells; assay type: cell-based, human
Procedure: FIG. 6: CSE induced CK2-dependent HDAC2 phosphorylation in bronchial epithelial and small airway epithelial cells. [A (i)] H292 cells were treated with CSE (2.5%) for 0.5, 1, 2 and 4 h. Immunoprecipitated HDAC2 was analyzed for phosphorylation of serine residues using specific phospho-serine antibodies by SDS polyacrylamide gel. CSE induced significant cyclical phosphorylation of HDAC2 on serine residues at 0.5, 1 and 4 h. [A (ii)] Relative density of phosphor-serine expression normalized to immunoprecipitated HDAC2. [B (i)] […] Immunoprecipitated HDAC2 from whole cell lysates was probed for phosphorylation of serine residues, CSE induced a dose-dependent increase in HDAC2 serine phosphorylation. [B (ii)] Relative density of phospho-serine expression normalized to immunoprecipitated HDAC2. (C) H292 cells were treated with or without specific CK2 inhibitor, TBB. for 1 h, cells were washed with sterile 1×PBS and then treated with freshly prepared CSE (2.5%) for 0.5 h, Immunoprecipitated HDAC2 was assayed for phosphorylation on serine residues. […] (D) Relative density of phosphor-serine expression normalized to immunoprecipitated HDAC2.
FIG. 14: Loss of Serine Sites S^394, S^422, S^424 Abrogates Cigarette Smoke Extract (CSE)-Induced Phosphatase-Independent HDAC2 Phosphorylation. A) Bronchial epithelial H292 cells were transfected with plasmid vector or flag-tagged WT HDAC2 (1-488) for 24 h using lipofectamine 2000 and then treated with or without 2.5% CSE for 0.5 h or B) 50 μM. acrolein for 1 h. Flag-tagged proteins were immunoprecipitated overnight and serine phosphorylation detected by western blots using phospho-serine antibodies. C) Flag-tagged WT HDAC2 was immunoprecipitated from whole cell lysates of H292 cells treated with 2.5% CSE for 0.5 h. Immunoprecipates were then washed and treated with 400 U of λ-phosphatase or buffer alone for 1 h at 30° C. Phosphorylation of serine sites were detected by western blots using anti-serine antibodies. D) H292 cells were transfected with plasmid vector, flag-tagged WT HDAC2 (1-488) or S394A, S394/411/422/424A and 1-400 aa HDAC2 mutants for 24 h with lipofectamine 2000. Cells were then treated with 2.5% CSE for 0.5 h. Serine phosphorylation of immunoprecipitated flag proteins was determined by western blot. E) Phosphatase activity was determined using non-radioactive assay system (Promega). H292 cells were treated with or without 2.5% CSE for 0.5, 2 and 6 h with serine/threonine […] (okadaic acid) used as a positive control. 5 μg protein was incubated with PP2A specific-peptide substrate RRA(pT)VA and reaction buffer for 15 minutes in a 96-well plate. Molybdate dye/additive mixture was added to stop the reaction and color allowed to develop for 15 minutes. Optical density of samples was determined using a microplate reader with a 630 nm filter.
FIG. 18: Protein Kinase CK2 Inhibitors Blocks CSE-Induced HDAC2 Phosphorylation. A) Bronchial epithelial H292 cells transfected with a flag-tagged WT HDAC2 plasmid were treated with 2.5% CSE for 0.5 h. […] B) Relative density of phospho-serine expression normalized to immunoprecipitated HDAC2. Data expressed as mean±SEM (n=3). *** P<0.001, ### P<0.001 significant compared to control treatments.
as §1

A549 epithelial cells = experiment: Histone acetylation:deacetylation in A549 epithelial cells; assay type: cell-based
Description: The effect of cigarette smoke extract/condensate (CSC/CSE) and oxidative stress on histone acetylation:deacetylation and pro-inflammatory gene transcription in A549 epithelial cells has been investigated. […] CSE-mediated decrease in HDAC2 level was associated with posttranslational modifications by 4-hydroxy-2-nonenal and nitric oxide radicals generated by cigarette smoke exposure.

HDAC2 [4] = experiment: Co-immunoprecipitation of flag-tagged HDAC2 with binding partners in H292 cells; assay type: cell-based, human; details: H292, flag-tagged WT HDAC2; TBB 40 μM 2 h and 90 μM 0.5 h, then CSE 2.5% 0.5 h
Procedure: FIG. 16: HDAC2 serine phosphorylation is associated with increased interaction with catalytic subunits of protein kinase CK2 in response to CSE. A) Bronchial epithelial H292 cells transfected with either a control vector (control V) or flag-tagged WT HDAC2 were treated with 2.5% CSE for 0.5 h. […] C) Bronchial epithelial H292 cells transfected with flag-tagged WT HDAC2 were treated with either 2.5% CSE for 0.5 h, 25 or 50 μM Acrolein for 1 h and 200 μM H202 for 0.5 and 2 h respectively.
A) H292 cells cultured on 8-well chamber slides were treated with 2.5% CSE for 0.5 h or 50 μM Acrolein for 1 h, washed and fixed with 4% PFA. Slides were incubated with HDAC2 and α-tubulin antibodies overnight at […]. Slides were mounted with antifade mounting solution and images analysed by an Olympus inverted microscope. B) H292 cells were transfected with plasmid vector (Ctrl V) or flag-tagged WT HDAC2 (1-488) for 24 h with lipofectamine 2000. Cells were treated with 2.5% CSE for 0.5 h and flag proteins immunoprecipitated using M2 anti-flag antibodies overnight at 4° C. HDAC1 and C) p53 interaction were determined by western blot. D) H292 cells were transfected with plasmid vector (Ctrl V), flag-tagged WT HDAC2 (1-488) or S^394/^411/^422/^424A and 1-400 amino acid HDAC2 mutants for 24 h with lipofectamine 2000. Cells were then exposed to 2.5% CSE for 0.5 h. Levels of HDAC2 interaction with HDAC1 were determined by western blotting using specific antibodies. E) H292 cells were transfected with flag-tagged WT HDAC2 (1-488) for 24 h with lipofectamine 2000. […] Levels of phospho-serine and HDAC2 interaction with SAP30, RbAp46/48, MBD3 and p65 were determined by western blotting using specific antibodies respectively. […] Levels of HDAC1 and p65 binding to immunoprecipitated flag-tagged HDAC2 was determined by western blotting. […] Deacetylase activity of immunoprecipitated HDAC2 was determined using a specific HDAC2 deacetylase activity kit. Data expressed as mean±SEM (n=3). *** P<0.001 significant compared to control treatments.

[5] = test system: LPS-induced lung inflammation; experiment: LPS-induced lung inflammation in WT mice; assay type: in vivo, mouse
Procedure: LPS exposure studies in mice were performed as described previously. Briefly, age-matched WT, Nrf2−/− and HDAC2−/− were exposed to aerosolized Escherichia coli LPS (1 mg/ml) for 8 minutes. Aerosolized saline-exposed mice were used as controls, and animals were sacrificed at 24 h post last exposure.
Corticosteroid treatment.
Bronchoalveolar lavage. Mice were anaesthetized by pentobarbital (Abbott Laboratories, Abbott Park, Ill.) intraperitoneal injection (100 mg/kg body weight) before sacrifice. Lungs were then removed and lavaged three times with 0.6 ml of 0.9% sodium chloride with cannula inserted into the trachea. Total lavage fluid for each mouse was combined and then centrifuged. Supernatants were frozen at −80° C. until required for further analysis and cell pellets resuspended in 1 ml of saline, and total number of cells determined using a haemocytometer. Differential counts (minimum 500 per slide) were determined using Diff-Quik (Dade Behring, Newark, Del.)-stained cytospin slides.
Cytokine Analysis. Monocyte chemotactic protein 1 (MCP-1) levels were measured from mouse lung soluble protein by enzyme-linked immunosorbent assay (ELISA) with the duo-antibody kit (R & D Systems). Results were normalized to protein concentration per sample.

[6] = test system: LPS-induced lung inflammation; experiment: LPS-induced lung inflammation in HDAC2−/− mice; assay type: in vivo, mouse
Description: Mice. The Nrf2 knockout (KO) mouse strain (Nrf2−/− on C57BL/6J background) used in this study is described earlier and was generously supplied by Prof. Masayuki Yamamoto, University of Tsukuba, Japan via the RIKEN BioResource Center, Tsukuba, Japan. HDAC2 mutant (HDAC2−/− on C57BL/6J background) mice were kindly provided by Dr. J. A. Epstein (University of Pennsylvania School of Medicine, Philadelphia, Pa.). […] Wild-type (WT) C57BL/6J mice were purchased from Jackson laboratories (Bar Harbor, Me.). All animal protocols for this study were approved by the University Committee on Animal Research of the University of Rochester.
LPS exposure studies in mice were performed as described previously. Briefly, age-matched WT, Nrf2−/− and HDAC2−/− were exposed to aerosolized Escherichia coli LPS (1 mg/ml) for 8 minutes. […]
Bronchoalveolar lavage. […] Supernatants were frozen at −80° C. until required for further analysis and cell pellets resuspended in 1 ml of saline, and total number of cells determined using a haemocytometer. Differential counts (minimum 500 per slide) were determined using Diff-Quik (Dade Behring, Newark, Del.)-stained cytospin slides.
Cytokine Analysis. Monocyte chemotactic protein 1 (MCP-1) levels were measured from mouse lung soluble protein by enzyme-linked immunosorbent assay (ELISA) with the duo-antibody kit (R & D Systems). […]

CK2α = CK2α phosphorylation in H292 cells; assay type: cell-based, human; details: okadaic acid 100 nM and 1 μM, 0.5 and 1 h
Procedure: FIG. 15: CK2α Is Phosphorylated In Response to CSE. […] 80 μg whole cell lysates were then treated with 400 U of λ-phosphatase or buffer alone for 1 h at 30° C. The reaction was stopped by adding equal volume of 2× sample buffer and relative CK2α expression determined by western blotting. D) H292 cells were treated with 100 nM and 1 μM okadaic acid for 0.5 and 1 h. Relative CK2α expression was determined by western blotting using 20 μg whole cell lysates.

MonoMac6 cells = assay type: cell-based, human
Procedure: In this study, it was determined the time-dependent effect of CSE on class I HDAC levels MonoMac6 cells were exposed to CSE (2.5%) for 0.5, 1, 2, 4 and 6 h. […] To determine whether class 1 HDAC degradation was due to decreased CSE-induced cell viability, the levels of lactate dehydrogenase (LDH) secreted into conditioned cell media was measured immediately after harvest.

HDAC2 [7] = experiment: Phosphorylation of immunoprecipitated HDAC2 in MonoMac6 cells; details: okadaic acid 1 μM, 0.5 and 1 h
Procedure: MonoMac6 cells were washed with Ca^2+/Mg^2+ free PBS and seeded at a density of 5.0×10^6 cells in 100 mm culture plates in a total volume of 7 ml RPMI-1640 containing 0.5% FBS. Cells were treated with CSE (2.5%) or Okadaic acid (40 nM and 1 μM) (Alexis Biochemicals, San Diego, Calif.). For treatments with protein casein kinase CK2 inhibitor, 4,5,6,7-tetrabromobenzotriazole (TBB), cells were pretreated with 20 μM TBB (Sigma, St. Louis, Mo.) for 1 or 2 h, cells were then washed with sterile PBS before treatment with CSE. […] Cells were treated with CSE (2.5%), washed in ice-cold sterile Ca^2+/Mg^2+ free PBS and lysed in RIPA buffer (50 mM Tris HCl pH 7.4, 150 mM NaCl, 0.25 mM EDTA, 5 mM NaF, 0.1% sodium deoxycholate, 1% Triton X-100); cell extracts and cell culture media were stored at −80° C. until analyzed.
Cell lysate (200 μg protein) was incubated for overnight with anti-HDAC2 (2 μg) at 4° C., then immunoprecipitated with Protein G-agarose beads for 1 h with constant agitation. Beads were washed at least four times with RIPA buffer, boiled for 10 minutes in 35 μl 2× sample buffer and resolved on a 7.5% SDS-polyacrylamide gel. Cell lysate controls were used. Blots were probed with p-serine (1:1000) and p-threonine (1:1000) (Cell Signaling, Boston, Mass.) monoclonal antibodies for studies on the post-translational modification of HDAC2.

HDAC2 [8] = experiment: HDAC2 immunostaining (localization) in MonoMac6 cells; assay type: cell-based, human; details: okadaic acid 1 μM, 0.5 h
Procedure: (B) Relative density of HDAC2 levels in human macrophage cells (MonoMac6 cells) at various time points of exposure to CSE.
To determine if CSE induced significant HDAC2 nucleo-cyloplasmic shuttling, MonoMac6 cells were treated with CSE (2.5%) for 4 and 6 h, cells were fixed in 4% paraformaldehyde and immunostained with anti-HDAC2 antibodies to determine HDAC2 localization. […] To determine whether shuttling occurred at earlier time points subsequent to degradation of HDAC2, MonoMac6 cells were exposed to CSE (2.5%) for 0.5 h and 1 h (data not shown).
as §2

## CCCC[C@@H](C=O)NC(=O)[C@H](CC(C)C)NC(=O)[C@H](CC(C)C)NC(C)=O [ALLN, N-Acetyl-Leu-Leu-Nle-CHO] (Ac-Leu-Leu-[Nle]-aldehyde)
HDAC2 [1]; ALLN 1 μM and 5 μM pretreated 2 h
  CSE-induced HDAC2 degradation: dose-dependently inhibited HDAC2 degradation
HDAC2 [2]; ALLN 1 μM pre-treatment, CSE 2.5% 6 h
  CSE-induced HDAC2 ubiquitination: further enhanced

## OO [H2O2, hydrogen peroxide]
HDAC2 [3]; H292, flag-tagged WT HDAC2, H2O2 200 μM, 0.5 and 2 h
  HDAC2 phosphorylation: inability
A549 epithelial cells; H2O2
  histone deacetylase (HDAC) activity and HDAC2 protein levels: inhibited
A549 epithelial cells; hydrogen peroxide 100 μM
  histone acetylation (with histone acetyltransferase activity): caused an increase in histone acetylation

## Brc1c(Br)c(Br)c2[nH]nnc2c1Br [TBB]
HDAC2 [3]; H292, flag-tagged WT HDAC2, TBB 50 μM pre-treated 2 h, then CSE 2.5% 0.5 h
  CSE-induced HDAC2 phosphorylation: completely inhibiting CSE-induced HDAC2 phosphorylation
HDAC2 [3]; H292, TBB 20 μM pretreated 1 h, then CSE 0.5 h
  CSE-induced HDAC2 phosphorylation: completely reversed CSE-induced HDAC2 phosphorylation
HDAC2 [3]; H292, TBB 25 μM pre-treated, then CSE
  CSE-induced HDAC2 phosphorylation: inhibit HDAC2 phosphorylation but not as efficiently
HDAC2 [1]; TBB 20 μM pre-treated 2 h
  CSE-induced HDAC2 degradation: significantly attenuated HDAC2 degradation
HDAC2 [4]
  HDAC2 interaction with HDAC1 and p65: blocked HDAC2 interaction with both HDAC1 and p65

## CCCC1O[C@@H]2C[C@H]3[C@@H]4CCC5=CC(=O)C=C[C@]5(C)[C@H]4[C@@H](O)C[C@]3(C)[C@]2(C(=O)CO)O1 (stereo partly drawn) [budesonide]
[5]; budesonide 3 mg/kg pretreatment
  attenuation of lung neutrophil influx following LPS exposure: ~50%
[5]; budesonide, LPS exposure
  efficacy in decreasing MCP-1 release: 49.4%
[6]; budesonide 3 mg/kg pretreatment, LPS
  neutrophil counts in BALF: no effect
[6]; budesonide, LPS exposure
  efficacy in decreasing MCP-1 release: 26.4%

## C=C1[C@@H](O)[C@@H]2O[C@]3(CC[C@H](/C=C/[C@@H](C)[C@@H]4CC(C)=C[C@@]5(O[C@H](C[C@@](C)(O)C(=O)O)CC[C@H]5O)O4)O3)CC[C@H]2O[C@@H]1[C@@H](O)C[C@H](C)[C@H]1O[C@@]2(CCCCO2)CC[C@H]1C [okadaic acid]
CK2α
  CK2α phosphorylation: induced CK2α phosphorylation
MonoMac6 cells; okadaic acid 40 nM, 24 h
  toxicity to cells (trypan blue viability, morphology): not toxic to the cells
MonoMac6 cells; okadaic acid 1 μM, beyond 1 h
  cell death: induced cell death
HDAC2 [7]
  phosphorylation of HDAC2 on serine residues: significantly induced the phosphorylation of HDAC2 on serine residues
HDAC2 [2]; okadaic acid 40 nM, 24 h
  ubiquitination of HDAC2: significantly induced the ubiquitination of HDAC2
HDAC2 [8]
  nuclear HDAC2 (immunostaining): significantly induced the loss of nuclear HDAC2
  nucleo-cytoplasmic shuttling of HDAC2: no nucleo-cytoplasmic shuttling of HDAC2 was observed
